Patent US6410539B1, “Imidazole derivatives and their use as farnesyl protein transferase inhibitors” (Astrazenca UK Limited, priority 1997, dated 2002)

Key:
[1] = biological target: T1, Farnesyl protein transferase (FPT) (Homo sapiens, UniProt P49354+P49356); assay: In-vitro farnesyl protein transferase assay (farnesylation of Ki-ras with radiolabelled farnesyl pyrophosphate); type: biochemical; conditions: "in the above test"; FPT partially purified from human placenta, substrate Kras (CVIM C-terminal sequence)
T1 construct: partially purified from human placenta by ammonium sulphate fractionation; from tissue; host or cells: human placenta
Protocol: The following stock solutions were used and the assays were conducted in 96 well plates: TRIS Buffer (500 mM TRIS, 50 mM MgCl2.6H2O, pH=8.0); Farnesyl pyrophosphate (6.4 mg/ml); Aprotinin (1.9 mg/ml); Ki-ras (0.5 mg/ml, stored at −80° C.); Acid ethanol (850 ml absolute ethanol+150 ml concentrated HCl).
Farnesyl protein transferase (FPT) was partially purified from human placenta by ammonium sulphate fractionation followed by a single Q-Sepharose™ (Pharmacia, Inc) anion exchange chromatography essentially as described by Ray and Lopez-Belmonte (Ray K P and Lopez-Belmonte J (1992) Biochemical Society Transactions 20 494-497). The substrate for FPT was Kras (CVIM C-terminal sequence). The cDNA for oncogenic val12 variant of human c-Ki-ras-2 4B was obtained from the plasmid pSW11-1 (ATCC). This was then subcloned into the polylinker of a suitable expression vector e.g. pIC147. The Kras was obtained after expression in the E. coli strain, BL21. […]
Assays were performed in 96 well plates as follows: 10 μl of test compound solution was added to each well. […] Precipitated protein was then collected onto glass fibre filter mats (B) using a Tomtec™ cell harvester and tritiated label was measured in a Wallac™1204 Betaplate scintillation counter. […]

melting point [°C] | IC50 [1] [nM] | Structure (SMILES)
94 to 98 |  | COC(=O)[C@H](CCSC)NC(=O)c1ccc(NC(Cn2ccnc2)c2ccc(F)cc2)cc1-c1ccc(F)cc1 (stereo partly drawn) [Example 2, Methyl (2S)-2-{2-(4-fluorophenyl)-4-[1-(4-fluorophenyl)-2-(imidazol-1-yl)ethylamino]benzoylamino}-4methylsulfanylbutyrate]
 | ~2 | CSCCC(NC(=O)c1ccc(NC(Cn2ccnc2)c2ccc(F)cc2)cc1-c1ccccc1)C(=O)O [Example 6, (2S)-2-{2-Phenyl-4-[1-(4-fluorophenyl-2-imidazol-1-yl)ethylamino]benzoylamino}-4-methylsulfanylbutyric acid]
115 to 120 |  | CSCC[C@H](NC(=O)c1cc(NC(Cn2ccnc2)c2ccc(F)cc2)ccc1CCc1ccc(F)cc1)C(=O)O (stereo partly drawn) [Example 8, (2S)-2-{5-[1-(4-Fluorophenyl)-2-(imidazol-1-yl)ethylamino]-2-(4-fluorophenethyl)benzoylamino}-4-methylsulfanylbutyric acid]
130 to 135 |  | CSCC[C@H](NC(=O)c1cc(NC(Cn2ccnc2)c2ccc(F)cc2)ccc1Cc1ccc(F)cc1)C(=O)O (stereo partly drawn) [Example 10, (2S)-2-{5-[1(4-Fluorophenyl)-2-(imidazol-1-yl)ethylamino]-2-(4-fluorobenzyl)benzoylamino}-4-methylsulfanylbutyric acid]
